# Assay results: patent EP0017543B1, “Benzothiazole derivatives, process for their preparation and their therapeutical uses” (Albert ROLLAND S.A. Société dite, priority 1979, dated 1980)
# How the values were obtained:
# [1] = test system: agrégation plaquettaire provoquée in vitro par l'ADP; assay: ADP-induced platelet aggregation in vitro in platelet-rich rat plasma; type: cell-based; conditions: plasma de rat enrichi en plaquettes
# [2] = test system: torsions à la phénylbenzoquinone chez la souris; assay: Phenylbenzoquinone writhing test (analgesic activity); type: in vivo; conditions: dose de 12,5 mg/kg, 24 heures après son administration
# Description: L'activité analgésique des composés de formule 1 a été mise en évidence dans le test des torsions à la phénylbenzoquinone chez la souris. Ainsi, l'acide de formule 1 (racémique) possède dans ce test une DE50 de 3 à 6 mg/kg P.O. Cette activité analgésique est prolongée dans le temps, une dose de 12,5 mg/kg de ce composé entraînant encore une analgésie de 42%, 24 heures après son administration.
# Solubility in water = type: physicochemical
# Description: Le sel de pyrrolidine de l'acide (phényl-2 benzothiazolyl-6)-2 propionique est préparé par action d'I g d'amine sur 4 g d'acide en solution dans le méthanol. Il fond à 142°C.
# [3] = test system: biosynthèse des prostaglandines; assay: Protection against arachidonic acid toxicity (lethal dose) in mice; type: in vivo, souris
compound,measurement,setting,value
CC(C(=O)O)c1ccc2nc(-c3ccccc3)sc2c1 (racemic),concentration active par rapport à l'acide acétyl salicylique,[1],actif à une concentration dix fois plus faible que l'acide acétyl salicylique
"CC(C(=O)O)c1ccc2nc(-c3ccccc3)sc2c1 (racemic) [Exemple 1, acide (phényl-2 benzothiazolyl-6)-2 propionique]",analgésie,[2],42%
"CC(C(=O)O)c1ccc2nc(-c3ccccc3)sc2c1 (racemic) [Exemple 3, (phényl-2 benzothiazolyl-6)-2 propionate de sodium]",solubilité dans l'eau,Solubility in water,soluble dans l'eau
same,activité contre la toxicité de l'acide arachidonique,"[3]; voie intraveineuse, same doses (0,5 mg/kg)",actifs aux mêmes doses
"CC(C(=O)O)c1ccc2nc(-c3ccccc3)sc2c1 (racemic) [Exemple 4, sel de pyrrolidine de l'acide (phényl-2 benzothiazolyl-6)-2 propionique]",solubilité dans l'eau,Solubility in water,soluble dans l'eau
"CC(C(=O)O)c1ccc2nc(-c3ccccc3)sc2c1 (single isomer, unassigned) [Exemple 8a, acide (phényl-2 benzothiazolyl-6)-2 propionique]","activité contre la toxicité de l'acide arachidonique, comparison of enantiomers and racemate",[3]; route not stated for the comparison,"activité comparable à celle du racémique (exemple 1), et supérieure à celle de son homologue lévogyre"
